Activity calls are given as the source filed them.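 How the source made its calls: active means compounds blocking probe labeling of mouse brain LYPLA1 and LYPLA2 with IC50 at most 1000 nM; inactive means IC50 above 1000 nM.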
Legend:
Assay in all cases: mouse brain serine hydrolase inhibitor potency by ABPP – cell lysate, mouse brain membrane proteome, fluorescence gel, selectivity assay for LYPLA1/LYPLA2 inhibitor project, late-stage follow-up (AID 743132)
FAAH = details: gel-based ABPP FP-Rh fluorescence
[1] = biological target: Monoacylglycerol lipase ABHD6 (Mus musculus) (UniProt Q8R2Y0); details: gel-based ABPP FP-Rh fluorescence
Monoacylglycerol lipase ABHD6 (Mus musculus), sequence (Q8R2Y0 whole entry, looked up): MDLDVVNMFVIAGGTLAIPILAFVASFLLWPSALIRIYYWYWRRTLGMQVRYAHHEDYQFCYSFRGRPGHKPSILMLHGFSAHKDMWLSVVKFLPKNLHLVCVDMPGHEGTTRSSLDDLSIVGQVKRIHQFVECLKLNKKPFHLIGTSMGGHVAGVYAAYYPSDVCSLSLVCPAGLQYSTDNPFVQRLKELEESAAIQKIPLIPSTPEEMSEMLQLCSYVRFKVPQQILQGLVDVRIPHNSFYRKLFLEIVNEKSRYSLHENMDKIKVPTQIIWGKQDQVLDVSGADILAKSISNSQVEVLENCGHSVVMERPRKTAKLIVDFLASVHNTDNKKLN

[2] = biological target: Acyl-protein thioesterase 1 (Mus musculus) (UniProt P97823); details: gel-based ABPP FP-Rh fluorescence, LYPLA1/2
Acyl-protein thioesterase 1 (Mus musculus), sequence (P97823 whole entry, looked up): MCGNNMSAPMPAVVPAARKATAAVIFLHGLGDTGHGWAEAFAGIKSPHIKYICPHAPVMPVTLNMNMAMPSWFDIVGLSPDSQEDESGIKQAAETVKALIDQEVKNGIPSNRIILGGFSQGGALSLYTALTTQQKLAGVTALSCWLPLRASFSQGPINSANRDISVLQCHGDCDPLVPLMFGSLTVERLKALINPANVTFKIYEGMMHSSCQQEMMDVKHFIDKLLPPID

IC50 (FAAH): inactive | IC50 [1]: 3.15 nM | IC50 [2]: 154 nM
Compound: O=C(ON1C(=O)C2CN(C(=O)N3CCOCC3)CCN2C1=O)N1CCC(CCc2ccc(Cl)cc2)CC1 (stereo not drawn)
